Test results taken from patent publication US5677439A, “Oligonucleotide analogues containing phosphate diester linkage substitutes, compositions thereof, and precursor dinucleotide analogues” (Sanofi, priority 1995, dated 1997).
Entries after “also recorded” stand apart in the source; their conditions may differ.

Key:
PHA stimulated human PBL = assay: Progression of PHA stimulated PBL into the S-phase of the cell cycle (flow cytometry); type: cell-based; settings: PHA stimulation 48 hours, versus nontreated control
Description: Human PBL's were stimulated with PHA for 48 hours in the presence or absence of the antisense oligonucleotide sequences of Table 6. The percent of the population of cells in each treatment group in the S-phase of the cell cycle as compared to the nontreated control was determined using standard flow cytometric techniques.

[1] = system: c-myc protein in MOLT-4 human T-cell leukemia cells; assay: C-MYC protein expression in MOLT-4 cells (35S-methionine, radioimmunoprecipitation); type: cell-based; settings: 60 μM, 8 hours incubation
Description: Asynchronous exponentially growing Molt-4 cells were incubated for 8 hours in the presence or absence of 60 μM c-myc directed antisense DNA. The cells were then incubated for 45 minutes in the presence of ^35 S-methionine and the content of c-myc protein guantitated using radioimmunoprecipitation with a c-myc antibody.

[2] = system: fetal calf serum-associated exonuclease; assay: Nuclease resistance: 2 h incubation in cell culture medium with 10% fetal calf serum, HPLC of parent compound; type: in vitro ADME; settings: for % DEGRADATION MAJOR PEAK: 2 hours at 37° C., 6 or 7 μM, RPMI 1640 medium with 10% heat inactivated FCS; for % of oligomer remained after incubation: 2 hrs incubation with fetal calf serum-associated exonuclease; for AREA-MAJOR PEAK/2.0 HR: HPLC peak area of parent compound after 2.0 hr at 37° C. in RPMI 1640 with 10% FCS; for AREA-MAJOR PEAK/0.0 MIN: HPLC peak area of parent compound, 260 nm; for degradation / resistance to hydrolysis by FCS-associated exonucleases (in words): 2 hrs incubation, 10% FCS
Description: The oligonucleotides of Table 4 were dissolved in water. DNA concentrations were then determined by measuring the absorbance of samples at 260 nm (on a Perkin Elmer Lambda 4C Spectrophotometer at ambient room temperature) and using calculated extinction coefficients [method of Cantor and Warsaw, CRC Handbook of Biochemistry and Molecular Biology, 3rd. ed.
The FCS was heat inactivated at 56° C. for 0.5 hour prior to use. Samples were then placed on ice and deproteinized using five extractions with 24:1 chloroform:isoamyl alcohol. Samples were either stored frozen at -20° C. or immediately loaded onto a refrigerated (4° C.) WISP (Waters) HPLC autoinjector.
Oligonucleotide hydrolysis was guantitated by determining the amount of disappearance of the parent compound. Oligonucleotides (from the reaction mixture) were separated on an LKB Ultrachrome GTi dual pump chromatography system equipped with a fixed wavelength detector (260 nm), and recording integrator, using a GenPak FAX (Waters) anion exchange column eguilibrated in Buffer A (1 mM EDTA; 15 mM sodium phosphate, pH 8.5). Column temperature was maintained at 60° C. using a Waters column oven. Fifty microliter sample injection volumes were used. The oligonucleotides were eluted using a linear gradient of 0% to 100% Buffer B (Buffer A containing 0.5M NaCl) over 60 minutes. Buffer flow rate was 1 mL/min.

Row | Substance | % CONTROL S-PHASE (PHA stimulated human PBL; 30 μM) [%] | % CONTROL S-PHASE (PHA stimulated human PBL; 60 μM) [%] | % REDUCTION C-MYC PROTEIN [1] [%] | % DEGRADATION MAJOR PEAK [2] [%] | % of oligomer remained after incubation [2] [%] | AREA-MAJOR PEAK/2.0 HR [2] | AREA-MAJOR PEAK/0.0 MIN [2] | degradation / resistance to hydrolysis by FCS-associated exonucleases (in words) [2]
1 | 5' AAC GTT GAG GGG CAT 3' [reference compound] | 75 ± 6 | 9 ± 10 | 61.0 ± 2.6 | – | – | – | – | –
2 | 5' CCT CGA CCA CCG CAT 3' (DNA CCTCGACCACCGCAT; DNA, backbone and methylation of C not given here) [Ref. Code 11, unmodified oligodeoxynucleotide made by standard solid phase phosphoramidite procedures, comparison, reference compound] | – | – | – | 75.3 | 24.7 | 0.3177 | 1.2861 | –
3 | 5' X GGA GCT GGT GGC GTA X (A) 3' (antisense GGAGCTGGTGGCGTA; triethylene glycol unit at both ends, extra 3' A, further chemistry not given here) [Ref. Code 7, TEG-terminated anti-RAS oncogene DNA, X is TEG] | – | – | – | 0.0 | – | 0.3663 | 0.2325 | no degradation; also recorded: completely resistant to hydrolysis
4 | 5' X CCT CGA CCA CCG CAT X (A) 3' (antisense CCTCGACCACCGCAT; triethylene glycol unit at both ends, extra 3' A, further chemistry not given here) [Ref. Code 9, TEG-terminated anti-RAS oncogene DNA, X is TEG] | – | – | – | 13.0 | 87.0 | 0.3258 | 0.3744 | –
5 | 5' XX CCT CGA CCA CCG CAT XX (A) 3' (antisense CCTCGACCACCGCAT; two TEG at each end, 3' A, chemistry not fully specified) [Ref. Code 10, TEG-terminated anti-RAS oncogene DNA, X is TEG] | – | – | – | 0.0 | – | 0.3697 | 0.3642 | no degradation; also recorded: completely resistant to hydrolysis
6 | 5' XX GGA GCT GGT GGC GTA XX (A) 3' (antisense GGAGCTGGTGGCGTA; two triethylene glycol units at each end, extra 3' A, further chemistry not given here) [Ref. Code 8, TEG-terminated anti-RAS oncogene DNA, X is TEG] | – | – | – | 17.9 | 82.1 | 0.1777 | 0.2164 | –
